Assay results as given in ChEMBL document CHEMBL1201862, “PubChem BioAssay data set” (2004).
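Exposure lasted 48 hours, with cells grown in 96-well plates and compounds tested at five concentrations. Here, GI50 denotes the concentration required for 50% inhibition of growth.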 Calls of active or inactive are those of the source. No stated cut-off is given here; in the data, active = GI50 up to about 1.1 µM and inactive = higher.

Key:
Assay in all cases: growth of human tumour cells (NCI), 48 h
T47D = tested on: T47D
IGROV-1 = tested on: IGROV-1
PC-3 = tested on: PC-3
SK-MEL-2 = tested on: SK-MEL-2
SW-620 = tested on: SW-620
Hs-578T = tested on: Hs-578T
SN12C = tested on: SN12C
SF-295 = tested on: SF-295
HL-60 = tested on: HL-60
U-251 = tested on: U-251
HCC 2998 = tested on: HCC 2998
CAKI-1 = tested on: CAKI-1
SNB-75 = tested on: SNB-75
COLO 205 = tested on: COLO 205
NCI-H522 = tested on: NCI-H522
SK-MEL-28 = tested on: SK-MEL-28
MDA-MB-231 = tested on: MDA-MB-231
OVCAR-5 = tested on: OVCAR-5
DU-145 = tested on: DU-145
A498 = tested on: A498
UACC-257 = tested on: UACC-257
OVCAR-8 = tested on: OVCAR-8
LOX IMVI = tested on: LOX IMVI
M14 = tested on: M14
SK-OV-3 = tested on: SK-OV-3
OVCAR-4 = tested on: OVCAR-4
BT-549 = tested on: BT-549
HT-29 = tested on: HT-29
SF-268 = tested on: SF-268
UO-31 = tested on: UO-31
HOP-92 = tested on: HOP-92
UACC-62 = tested on: UACC-62
CCRF-CEM = tested on: CCRF-CEM
K562 = tested on: K562
EKVX = tested on: EKVX
SNB-19 = tested on: SNB-19
MDA-N = tested on: MDA-N
NCI-H226 = tested on: NCI-H226
NCI-H460 = tested on: NCI-H460
NCI-H23 = tested on: NCI-H23
SR = tested on: SR
KM12 = tested on: KM12
HCT-15 = tested on: HCT-15
A549 = tested on: A549
HCT-116 = tested on: HCT-116
MOLT-4 = tested on: MOLT-4
SF-539 = tested on: SF-539
SK-MEL-5 = tested on: SK-MEL-5
NCI/ADR-RES = tested on: NCI/ADR-RES
ACHN = tested on: ACHN
RPMI-8226 = tested on: RPMI-8226
TK-10 = tested on: TK-10
MCF7 = tested on: MCF7
RXF 393 = tested on: RXF 393
HOP-62 = tested on: HOP-62
Malme-3M = tested on: Malme-3M
OVCAR-3 = tested on: OVCAR-3
786-0 = tested on: 786-0
MDA-MB-435 = tested on: MDA-MB-435

## c1ccc(CC(Nc2cccnc2)c2ccccc2)cc1 (stereo not drawn)
T47D
  GI50: 28.1 µM (inactive)
IGROV-1
  GI50: 31 µM (inactive)
PC-3
  GI50: 24.8 µM (inactive)
SK-MEL-2
  GI50: 18.4 µM (inactive)
SW-620
  GI50: 33 µM (inactive)
Hs-578T
  GI50: 37.2 µM (inactive)
SN12C
  GI50: 20.6 µM (inactive)
SF-295
  GI50: 18.5 µM (inactive)
HL-60
  GI50: 23.9 µM (inactive)
U-251
  GI50: 19.5 µM (inactive)
HCC 2998
  GI50: 21.2 µM (inactive)
CAKI-1
  GI50: 32.4 µM (inactive)
SNB-75
  GI50: 24.9 µM (inactive)
COLO 205
  GI50: 19.8 µM (inactive)
NCI-H522
  GI50: 22.4 µM (inactive)
SK-MEL-28
  GI50: 31 µM (inactive)
MDA-MB-231
  GI50: 20 µM (inactive)
OVCAR-5
  GI50: 33.3 µM (inactive)
DU-145
  GI50: 29.6 µM (inactive)
A498
  GI50: 34 µM (inactive)
UACC-257
  GI50: 22 µM (inactive)
OVCAR-8
  GI50: 28.2 µM (inactive)
LOX IMVI
  GI50: 16.2 µM (inactive)
M14
  GI50: 17.9 µM (inactive)
SK-OV-3
  GI50: 31.7 µM (inactive)
OVCAR-4
  GI50: 25.7 µM (inactive)
BT-549
  GI50: 25.2 µM (inactive)
HT-29
  GI50: 16.4 µM (inactive)
SF-268
  GI50: 40.6 µM (inactive)
UO-31
  GI50: 19.7 µM (inactive)
HOP-92
  GI50: 17.4 µM (inactive)
UACC-62
  GI50: 16.6 µM (inactive)
CCRF-CEM
  GI50: 16.4 µM (inactive)
K562
  GI50: 17.5 µM (inactive)
EKVX
  GI50: 24.2 µM (inactive)
SNB-19
  GI50: 30.8 µM (inactive)
MDA-N
  GI50: 20.1 µM (inactive)
NCI-H226
  GI50: 24.2 µM (inactive)
NCI-H460
  GI50: 23 µM (inactive)
NCI-H23
  GI50: 26.7 µM (inactive)
SR
  GI50: 23.9 µM (inactive)
KM12
  GI50: 24.2 µM (inactive)
HCT-15
  GI50: 30.3 µM
A549
  GI50: 25.6 µM (inactive)
HCT-116
  GI50: 15.5 µM (inactive)
MOLT-4
  GI50: 16.4 µM (inactive)
SF-539
  GI50: 20.6 µM (inactive)
SK-MEL-5
  GI50: 15.7 µM (inactive)
NCI/ADR-RES
  GI50: 21.9 µM (inactive)
ACHN
  GI50: 37.7 µM (inactive)
RPMI-8226
  GI50: 17 µM (inactive)
TK-10
  GI50: 32.2 µM (inactive)
MCF7
  GI50: 28.9 µM (inactive)
RXF 393
  GI50: 18.6 µM (inactive)
HOP-62
  GI50: 24.5 µM (inactive)
Malme-3M
  GI50: 29 µM (inactive)
OVCAR-3
  GI50: 16.4 µM (inactive)
786-0
  GI50: 21.3 µM (inactive)
MDA-MB-435
  GI50: 22.9 µM (inactive)

## CC1CCC2(C(=O)O)CCC3(C)C(=CCC4C5(C)CC(O)C(O)C(C)(CO)C5C(O)CC43C)C2C1C (stereo not drawn)
T47D
  GI50: 37.4 µM (inactive)
IGROV-1
  GI50: 19.2 µM (inactive)
PC-3
  GI50: 83.6 µM (inactive)
SK-MEL-2
  GI50: 19.4 µM (inactive)
SW-620
  GI50: > 100 µM (inactive)
Hs-578T
  GI50: 19.4 µM (inactive)
SN12C
  GI50: 2.12 µM (inactive)
SF-295
  GI50: 74.5 µM (inactive)
HL-60
  GI50: 20.2 µM (inactive)
U-251
  GI50: 21.6 µM (inactive)
HCC 2998
  GI50: 35.9 µM (inactive)
CAKI-1
  GI50: > 100 µM (inactive)
SNB-75
  GI50: 28.1 µM (inactive)
COLO 205
  GI50: 50 µM (inactive)
NCI-H522
  GI50: 17.5 µM (inactive)
SK-MEL-28
  GI50: 30.8 µM (inactive)
MDA-MB-231
  GI50: 39.9 µM (inactive)
OVCAR-5
  GI50: > 100 µM (inactive)
DU-145
  GI50: > 100 µM (inactive)
A498
  GI50: 24.3 µM (inactive)
UACC-257
  GI50: 98.4 µM (inactive)
OVCAR-8
  GI50: 21.1 µM (inactive)
LOX IMVI
  GI50: 20.5 µM (inactive)
M14
  GI50: > 100 µM (inactive)
SK-OV-3
  GI50: > 100 µM (inactive)
OVCAR-4
  GI50: > 100 µM (inactive)
BT-549
  GI50: 31.7 µM (inactive)
HT-29
  GI50: > 88.5 µM (inactive)
SF-268
  GI50: 28.5 µM (inactive)
UO-31
  GI50: > 100 µM (inactive)
HOP-92
  GI50: 20.8 µM (inactive)
UACC-62
  GI50: 21.3 µM (inactive)
CCRF-CEM
  GI50: 19 µM (inactive)
K562
  GI50: 41.1 µM (inactive)
EKVX
  GI50: > 89.3 µM (inactive)
SNB-19
  GI50: 22.7 µM (inactive)
MDA-N
  GI50: 11.1 µM (inactive)
NCI-H226
  GI50: > 79.6 µM (inactive)
NCI-H460
  GI50: > 100 µM (inactive)
NCI-H23
  GI50: 65.8 µM (inactive)
SR
  GI50: 22.8 µM (inactive)
KM12
  GI50: 43.3 µM (inactive)
HCT-15
  GI50: > 100 µM
A549
  GI50: > 100 µM (inactive)
HCT-116
  GI50: 5.65 µM (inactive)
MOLT-4
  GI50: 58.2 µM (inactive)
SF-539
  GI50: 39 µM (inactive)
SK-MEL-5
  GI50: 41.8 µM (inactive)
NCI/ADR-RES
  GI50: > 100 µM (inactive)
ACHN
  GI50: > 100 µM (inactive)
RPMI-8226
  GI50: 33.4 µM (inactive)
TK-10
  GI50: > 100 µM (inactive)
MCF7
  GI50: 41.5 µM (inactive)
RXF 393
  GI50: 31.3 µM (inactive)
HOP-62
  GI50: 45.4 µM (inactive)
Malme-3M
  GI50: 47.5 µM (inactive)
OVCAR-3
  GI50: 24.1 µM (inactive)
786-0
  GI50: 3.29 µM (inactive)
MDA-MB-435
  GI50: 45.6 µM (inactive)
